{
  "source": "paper PMC6658524",
  "about": "“Lysosomal degradation of newly formed insulin granules contributes to β cell failure in diabetes” (Nature Communications, 2019)",
  "assay_in_all_cases": "biochemical",
  "parameters_in_all_cases": "Eurofins KinaseProfiler panel of 60 kinases, per cent inhibition",
  "key": {"c-RAF(h)": {"molecular_target": "T1, c-RAF(h) (Homo sapiens, UniProt P04049)", "T1 construct": "gene RAF1", "description": "(§1) A more detailed account of the discovery, chemistry and biochemical properties of this novel class of selective p38δ inhibitors will be given elsewhere."}, "CDK5/p25(h)": {"molecular_target": "T2, CDK5/p25(h) (Homo sapiens, UniProt Q00535)", "T2 construct": "p25", "description": "as §1"}, "PAK4(h)": {"molecular_target": "PAK4(h) (Homo sapiens, UniProt O96013)", "description": "as §1"}, "PKCζ(h)": {"molecular_target": "T3, PKCζ(h) (Homo sapiens, UniProt Q05513)", "T3 construct": "gene PRKCZ", "description": "as §1"}, "EphA1(h)": {"molecular_target": "EphA1(h) (Homo sapiens, UniProt P21709)", "sequence (P21709 whole entry)": "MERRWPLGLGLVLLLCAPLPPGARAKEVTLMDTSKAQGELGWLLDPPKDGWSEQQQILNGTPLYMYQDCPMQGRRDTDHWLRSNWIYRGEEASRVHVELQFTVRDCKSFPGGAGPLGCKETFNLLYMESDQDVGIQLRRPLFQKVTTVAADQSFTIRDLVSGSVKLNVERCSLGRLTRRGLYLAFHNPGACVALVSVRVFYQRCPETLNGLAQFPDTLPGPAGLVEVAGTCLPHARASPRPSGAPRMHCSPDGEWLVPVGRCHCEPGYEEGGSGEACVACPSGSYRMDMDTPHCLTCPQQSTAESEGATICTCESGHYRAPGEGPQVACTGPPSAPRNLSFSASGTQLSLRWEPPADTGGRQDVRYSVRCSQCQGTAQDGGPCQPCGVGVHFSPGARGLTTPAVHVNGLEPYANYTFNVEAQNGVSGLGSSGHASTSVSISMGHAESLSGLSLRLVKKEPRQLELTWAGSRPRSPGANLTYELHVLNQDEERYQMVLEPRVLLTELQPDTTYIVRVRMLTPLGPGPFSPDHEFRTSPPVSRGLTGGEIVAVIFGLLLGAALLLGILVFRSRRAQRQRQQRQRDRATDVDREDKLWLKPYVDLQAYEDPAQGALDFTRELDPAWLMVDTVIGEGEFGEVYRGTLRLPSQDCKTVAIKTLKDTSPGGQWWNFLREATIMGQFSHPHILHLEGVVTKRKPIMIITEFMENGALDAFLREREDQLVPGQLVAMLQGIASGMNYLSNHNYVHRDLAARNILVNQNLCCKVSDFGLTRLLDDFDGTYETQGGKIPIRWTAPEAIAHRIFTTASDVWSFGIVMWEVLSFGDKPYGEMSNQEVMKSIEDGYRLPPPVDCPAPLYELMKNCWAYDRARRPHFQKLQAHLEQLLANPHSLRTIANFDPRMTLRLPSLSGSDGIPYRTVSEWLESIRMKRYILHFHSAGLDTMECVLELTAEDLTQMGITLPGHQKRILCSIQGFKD", "description": "as §1"}, "MAPK1(h)": {"molecular_target": "T4, MAPK1(h) (Homo sapiens, UniProt P27361)", "T4 construct": "gene MAPK3", "T4 sequence (P27361 whole entry)": "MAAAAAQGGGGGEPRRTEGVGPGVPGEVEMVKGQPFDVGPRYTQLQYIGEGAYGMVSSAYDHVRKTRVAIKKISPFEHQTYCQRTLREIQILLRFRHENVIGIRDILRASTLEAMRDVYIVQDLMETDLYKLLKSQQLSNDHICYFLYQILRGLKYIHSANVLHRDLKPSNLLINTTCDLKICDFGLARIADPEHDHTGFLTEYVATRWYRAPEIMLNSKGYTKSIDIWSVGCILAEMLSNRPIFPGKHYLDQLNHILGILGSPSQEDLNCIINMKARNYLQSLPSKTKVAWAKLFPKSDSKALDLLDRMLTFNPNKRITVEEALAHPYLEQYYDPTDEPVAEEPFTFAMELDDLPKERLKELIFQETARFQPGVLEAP", "description": "as §1"}, "Rsk1(h)": {"molecular_target": "T5, Rsk1(h) (Homo sapiens, UniProt Q15418)", "T5 construct": "gene RPS6KA1", "T5 sequence (Q15418 whole entry)": "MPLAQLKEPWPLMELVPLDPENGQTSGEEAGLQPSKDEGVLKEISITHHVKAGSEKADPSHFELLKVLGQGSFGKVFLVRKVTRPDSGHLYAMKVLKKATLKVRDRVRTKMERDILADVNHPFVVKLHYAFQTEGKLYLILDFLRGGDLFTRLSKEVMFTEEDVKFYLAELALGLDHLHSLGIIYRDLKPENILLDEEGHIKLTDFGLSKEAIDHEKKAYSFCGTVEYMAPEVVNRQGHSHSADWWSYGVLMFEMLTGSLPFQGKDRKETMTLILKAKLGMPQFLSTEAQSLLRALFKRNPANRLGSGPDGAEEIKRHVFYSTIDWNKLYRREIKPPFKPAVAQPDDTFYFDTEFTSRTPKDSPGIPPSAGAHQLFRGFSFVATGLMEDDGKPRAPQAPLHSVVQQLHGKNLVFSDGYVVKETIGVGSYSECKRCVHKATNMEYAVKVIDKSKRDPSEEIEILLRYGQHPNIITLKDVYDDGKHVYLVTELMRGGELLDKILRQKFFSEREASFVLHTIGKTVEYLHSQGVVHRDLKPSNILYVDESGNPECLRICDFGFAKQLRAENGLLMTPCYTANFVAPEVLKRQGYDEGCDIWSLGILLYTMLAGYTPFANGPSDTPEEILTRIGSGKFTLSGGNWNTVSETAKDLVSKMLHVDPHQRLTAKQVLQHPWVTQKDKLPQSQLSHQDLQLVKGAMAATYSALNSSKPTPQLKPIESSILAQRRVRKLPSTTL", "description": "as §1"}, "SAPK3(h)": {"molecular_target": "T6, SAPK3(h) (Homo sapiens, UniProt P53778)", "T6 construct": "gene MAPK12", "description": "as §1"}, "PKBα(h)": {"molecular_target": "T7, PKBα(h) (Homo sapiens, UniProt P31749)", "T7 construct": "gene AKT1", "description": "as §1"}, "Met(h)": {"molecular_target": "Met(h) (Homo sapiens, UniProt P08581)", "sequence (P08581 whole entry)": "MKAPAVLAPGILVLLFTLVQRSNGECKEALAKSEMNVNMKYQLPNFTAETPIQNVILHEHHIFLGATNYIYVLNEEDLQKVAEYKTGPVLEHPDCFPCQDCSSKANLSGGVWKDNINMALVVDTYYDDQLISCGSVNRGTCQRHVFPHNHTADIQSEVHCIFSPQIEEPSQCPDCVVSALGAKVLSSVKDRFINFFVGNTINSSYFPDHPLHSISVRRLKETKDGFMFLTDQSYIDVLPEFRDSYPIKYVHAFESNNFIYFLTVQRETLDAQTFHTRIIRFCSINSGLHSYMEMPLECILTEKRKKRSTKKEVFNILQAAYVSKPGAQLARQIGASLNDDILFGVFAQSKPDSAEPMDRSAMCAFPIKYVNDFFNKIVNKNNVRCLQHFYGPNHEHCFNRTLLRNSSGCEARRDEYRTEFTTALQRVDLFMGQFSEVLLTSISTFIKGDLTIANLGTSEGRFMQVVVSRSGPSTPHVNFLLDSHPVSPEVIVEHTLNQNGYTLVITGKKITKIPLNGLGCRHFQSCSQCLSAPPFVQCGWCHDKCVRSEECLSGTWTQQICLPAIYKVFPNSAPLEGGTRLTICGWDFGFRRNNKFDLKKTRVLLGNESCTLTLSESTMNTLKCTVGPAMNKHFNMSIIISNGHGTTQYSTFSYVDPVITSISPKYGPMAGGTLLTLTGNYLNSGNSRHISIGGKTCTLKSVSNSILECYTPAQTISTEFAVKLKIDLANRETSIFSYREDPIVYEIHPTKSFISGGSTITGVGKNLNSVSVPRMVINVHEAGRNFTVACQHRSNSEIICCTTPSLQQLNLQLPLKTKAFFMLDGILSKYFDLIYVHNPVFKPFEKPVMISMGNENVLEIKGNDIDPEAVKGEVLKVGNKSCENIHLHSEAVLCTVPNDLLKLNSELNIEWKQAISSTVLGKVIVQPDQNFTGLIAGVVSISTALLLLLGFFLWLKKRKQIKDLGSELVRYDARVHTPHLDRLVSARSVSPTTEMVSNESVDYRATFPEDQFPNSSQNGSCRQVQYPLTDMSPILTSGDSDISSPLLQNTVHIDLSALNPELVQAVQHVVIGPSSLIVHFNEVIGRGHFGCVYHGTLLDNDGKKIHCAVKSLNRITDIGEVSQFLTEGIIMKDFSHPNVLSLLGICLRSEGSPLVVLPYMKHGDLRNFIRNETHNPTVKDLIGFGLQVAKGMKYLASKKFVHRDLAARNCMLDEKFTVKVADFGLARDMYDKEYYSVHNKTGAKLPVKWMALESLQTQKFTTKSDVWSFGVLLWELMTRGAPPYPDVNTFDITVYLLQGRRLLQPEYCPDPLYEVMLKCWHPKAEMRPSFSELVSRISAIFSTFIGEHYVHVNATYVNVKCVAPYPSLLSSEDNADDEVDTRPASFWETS", "description": "as §1"}, "Lyn(h)": {"molecular_target": "Lyn(h) (Homo sapiens, UniProt P07948)", "description": "as §1"}, "PDGFRα(h)": {"molecular_target": "T8, PDGFRα(h) (Homo sapiens, UniProt P16234)", "T8 construct": "gene PDGFRA", "description": "as §1"}, "p70S6K(h)": {"molecular_target": "T9, p70S6K(h) (Homo sapiens, UniProt P23443)", "T9 construct": "gene RPS6KB1", "description": "as §1"}, "DDR2(h)": {"molecular_target": "DDR2(h) (Homo sapiens, UniProt Q16832)", "description": "as §1"}, "EGFR(h)": {"molecular_target": "EGFR(h) (Homo sapiens, UniProt P00533)", "description": "as §1"}, "EphB4(h)": {"molecular_target": "EphB4(h) (Homo sapiens, UniProt P54760)", "description": "as §1"}, "CaMKI(h)": {"molecular_target": "T10, CaMKI(h) (Homo sapiens, UniProt Q14012)", "T10 construct": "gene CAMK1", "description": "as §1"}, "SAPK2a(h)": {"molecular_target": "T11, SAPK2a(h) (Homo sapiens, UniProt Q16539)", "T11 construct": "gene MAPK14", "T11 sequence (Q16539 whole entry)": "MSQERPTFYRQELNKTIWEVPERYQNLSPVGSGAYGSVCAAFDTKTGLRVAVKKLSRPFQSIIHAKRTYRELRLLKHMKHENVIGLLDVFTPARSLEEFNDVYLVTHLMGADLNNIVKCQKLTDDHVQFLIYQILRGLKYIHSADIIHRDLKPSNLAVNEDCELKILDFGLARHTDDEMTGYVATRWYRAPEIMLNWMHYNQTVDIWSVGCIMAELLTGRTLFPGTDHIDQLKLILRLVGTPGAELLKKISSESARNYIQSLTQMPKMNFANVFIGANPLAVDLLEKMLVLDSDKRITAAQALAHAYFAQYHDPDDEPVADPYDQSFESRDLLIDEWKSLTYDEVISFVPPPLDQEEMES", "description": "as §1"}, "PKCθ(h)": {"molecular_target": "T12, PKCθ(h) (Homo sapiens, UniProt Q04759)", "T12 construct": "gene PRKCQ", "description": "as §1"}, "CLK2(h)": {"molecular_target": "CLK2(h) (Homo sapiens, UniProt P49760)", "sequence (P49760 whole entry)": "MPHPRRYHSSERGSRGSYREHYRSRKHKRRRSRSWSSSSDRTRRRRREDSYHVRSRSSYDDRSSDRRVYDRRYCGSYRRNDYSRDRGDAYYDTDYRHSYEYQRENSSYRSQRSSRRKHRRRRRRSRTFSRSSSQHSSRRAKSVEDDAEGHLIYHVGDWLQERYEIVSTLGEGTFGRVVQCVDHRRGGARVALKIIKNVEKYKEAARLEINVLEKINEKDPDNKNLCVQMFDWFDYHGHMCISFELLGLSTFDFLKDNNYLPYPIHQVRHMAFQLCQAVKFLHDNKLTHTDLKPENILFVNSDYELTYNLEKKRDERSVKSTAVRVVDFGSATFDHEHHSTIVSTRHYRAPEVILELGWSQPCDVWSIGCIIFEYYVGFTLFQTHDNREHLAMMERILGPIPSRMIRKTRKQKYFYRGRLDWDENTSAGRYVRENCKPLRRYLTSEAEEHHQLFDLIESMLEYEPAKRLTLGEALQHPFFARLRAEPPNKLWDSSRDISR", "description": "as §1"}, "Ron(h)": {"molecular_target": "T13, Ron(h) (Homo sapiens, UniProt Q04912)", "T13 construct": "gene MST1R", "description": "as §1"}, "PKCε(h)": {"molecular_target": "T14, PKCε(h) (Homo sapiens, UniProt Q02156)", "T14 construct": "gene PRKCE", "description": "as §1"}, "DYRK2(h)": {"molecular_target": "DYRK2(h) (Homo sapiens, UniProt Q92630)", "sequence (Q92630 whole entry)": "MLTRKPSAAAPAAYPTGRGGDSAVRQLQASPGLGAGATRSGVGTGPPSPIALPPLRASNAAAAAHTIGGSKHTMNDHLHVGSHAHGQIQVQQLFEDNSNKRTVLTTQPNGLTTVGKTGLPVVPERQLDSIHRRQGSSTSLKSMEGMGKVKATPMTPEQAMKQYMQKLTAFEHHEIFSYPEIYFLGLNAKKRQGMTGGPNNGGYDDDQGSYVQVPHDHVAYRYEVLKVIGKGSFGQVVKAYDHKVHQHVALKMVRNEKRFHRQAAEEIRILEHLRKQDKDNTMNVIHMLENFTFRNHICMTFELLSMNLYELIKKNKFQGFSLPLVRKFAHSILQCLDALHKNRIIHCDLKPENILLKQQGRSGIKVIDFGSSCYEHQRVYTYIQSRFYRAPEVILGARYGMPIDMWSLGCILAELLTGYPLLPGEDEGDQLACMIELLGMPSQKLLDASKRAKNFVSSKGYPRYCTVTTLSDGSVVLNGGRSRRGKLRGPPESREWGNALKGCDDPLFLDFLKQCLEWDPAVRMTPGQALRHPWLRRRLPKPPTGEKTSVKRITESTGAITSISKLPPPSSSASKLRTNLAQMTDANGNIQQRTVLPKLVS", "description": "as §1"}, "mTOR(h)": {"molecular_target": "mTOR(h) (Homo sapiens, UniProt P42345)", "description": "as §1"}},
  "data": [
    {"smiles": "CCN1CCOc2nc(N3CCOCC3)nc(-c3ccc(NC(=O)OC)cc3)c2C1=O", "note": "[Compound A]", "values": [
      {"measurement": "inhibition at 1 µM", "setting": "c-RAF(h)", "result": -5, "unit": "%"},
      {"measurement": "inhibition at 10 µM", "setting": "c-RAF(h)", "result": 2, "unit": "%"},
      {"measurement": "inhibition at 1 µM", "setting": "CDK5/p25(h)", "result": -2, "unit": "%"},
      {"measurement": "inhibition at 10 µM", "setting": "CDK5/p25(h)", "result": -2, "unit": "%"},
      {"measurement": "inhibition at 1 µM", "setting": "PAK4(h)", "result": -2, "unit": "%"},
      {"measurement": "inhibition at 10 µM", "setting": "PAK4(h)", "result": 4, "unit": "%"},
      {"measurement": "inhibition at 1 µM", "setting": "PKCζ(h)", "result": 0, "unit": "%"},
      {"measurement": "inhibition at 10 µM", "setting": "PKCζ(h)", "result": 10, "unit": "%"},
      {"measurement": "inhibition at 1 µM", "setting": "EphA1(h)", "result": 0, "unit": "%"},
      {"measurement": "inhibition at 10 µM", "setting": "EphA1(h)", "result": 7, "unit": "%"},
      {"measurement": "inhibition at 1 µM", "setting": "MAPK1(h)", "result": 0, "unit": "%"},
      {"measurement": "inhibition at 10 µM", "setting": "MAPK1(h)", "result": 5, "unit": "%"},
      {"measurement": "inhibition at 1 µM", "setting": "Rsk1(h)", "result": -11, "unit": "%"},
      {"measurement": "inhibition at 10 µM", "setting": "Rsk1(h)", "result": 5, "unit": "%"},
      {"measurement": "inhibition at 1 µM", "setting": "SAPK3(h)", "result": 11, "unit": "%"},
      {"measurement": "inhibition at 1 µM", "setting": "PKBα(h)", "result": 14, "unit": "%"},
      {"measurement": "inhibition at 10 µM", "setting": "PKBα(h)", "result": 17, "unit": "%"},
      {"measurement": "inhibition at 1 µM", "setting": "Met(h)", "result": -16, "unit": "%"},
      {"measurement": "inhibition at 10 µM", "setting": "Met(h)", "result": -7, "unit": "%"},
      {"measurement": "inhibition at 1 µM", "setting": "Lyn(h)", "result": -2, "unit": "%"},
      {"measurement": "inhibition at 10 µM", "setting": "Lyn(h)", "result": 13, "unit": "%"},
      {"measurement": "inhibition at 1 µM", "setting": "PDGFRα(h)", "result": 1, "unit": "%"},
      {"measurement": "inhibition at 10 µM", "setting": "PDGFRα(h)", "result": 0, "unit": "%"},
      {"measurement": "inhibition at 1 µM", "setting": "p70S6K(h)", "result": 15, "unit": "%"},
      {"measurement": "inhibition at 1 µM", "setting": "DDR2(h)", "result": 6, "unit": "%"},
      {"measurement": "inhibition at 10 µM", "setting": "DDR2(h)", "result": 15, "unit": "%"},
      {"measurement": "inhibition at 1 µM", "setting": "EGFR(h)", "result": -17, "unit": "%"},
      {"measurement": "inhibition at 10 µM", "setting": "EGFR(h)", "result": 4, "unit": "%"},
      {"measurement": "inhibition at 1 µM", "setting": "EphB4(h)", "result": -3, "unit": "%"},
      {"measurement": "inhibition at 10 µM", "setting": "EphB4(h)", "result": 8, "unit": "%"},
      {"measurement": "inhibition at 1 µM", "setting": "CaMKI(h)", "result": 5, "unit": "%"},
      {"measurement": "inhibition at 10 µM", "setting": "CaMKI(h)", "result": 11, "unit": "%"},
      {"measurement": "inhibition at 1 µM", "setting": "SAPK2a(h)", "result": -16, "unit": "%"},
      {"measurement": "inhibition at 10 µM", "setting": "SAPK2a(h)", "result": 9, "unit": "%"},
      {"measurement": "inhibition at 1 µM", "setting": "PKCθ(h)", "result": 7, "unit": "%"},
      {"measurement": "inhibition at 10 µM", "setting": "PKCθ(h)", "result": 7, "unit": "%"},
      {"measurement": "inhibition at 1 µM", "setting": "CLK2(h)", "result": -2, "unit": "%"},
      {"measurement": "inhibition at 10 µM", "setting": "CLK2(h)", "result": -2, "unit": "%"},
      {"measurement": "inhibition at 1 µM", "setting": "Ron(h)", "result": 10, "unit": "%"},
      {"measurement": "inhibition at 10 µM", "setting": "Ron(h)", "result": 9, "unit": "%"},
      {"measurement": "inhibition at 1 µM", "setting": "PKCε(h)", "result": 8, "unit": "%"},
      {"measurement": "inhibition at 10 µM", "setting": "PKCε(h)", "result": 12, "unit": "%"},
      {"measurement": "inhibition at 1 µM", "setting": "DYRK2(h)", "result": -10, "unit": "%"},
      {"measurement": "inhibition at 10 µM", "setting": "DYRK2(h)", "result": -10, "unit": "%"},
      {"measurement": "inhibition at 1 µM", "setting": "mTOR(h)", "result": -1, "unit": "%"}
    ]}
  ]
}
